From ChEMBL document CHEMBL1148075, “Hamacanthins A and B, new antifungal bis indole alkaloids from the deep-water marine sponge, Hamacantha sp” (1994) come the findings set out here.

In brackets after ≈: the same amount, converted by molar mass.

What all share (assay type): functional
In one assay the test system is Cryptococcus neoformans. In words: Antifungal activity against Cryptococcus neoformans ATCC 32045 after 48 hrs by broth microdilution method. The conditions noted are these: ATCC 32045, 48 h.
Another assay concerns Bacillus subtilis. In words: Antimicrobial activity against Bacillus subtilis ATCC 6633 after 24 hrs by broth microdilution method. Particulars: ATCC 6633, 24 h. On the technique in general: Broth dilution looks for growth in wells or tubes with falling amounts of substance.
Another assay concerns Candida albicans. In words: Antifungal activity against Candida albicans ATCC 44506 after 24 hrs by broth microdilution method. The conditions noted are these: ATCC 44506, 24 h.

Broadly, the MIC is the smallest concentration in the dilution series that meets the test's criterion for growth inhibition. The low end stands for greater potency, the high end for weaker potency. Regarding `O=C1N[C@@H](c2c[nH]c3cc(Br)ccc23)CN=C1c1c[nH]c2cc(Br)ccc12` [HAMACANTHIN A], the results for the minimum inhibitory concentration (MIC) in the assay on Cryptococcus neoformans, against Bacillus subtilis and with Candida albicans were 3.1 µg/mL (≈ 6.38 µM), 3.1 µg/mL (≈ 6.38 µM) and 1.6 µg/mL (≈ 3.29 µM), respectively.

Consider `O=C1NC[C@H](c2c[nH]c3cc(Br)ccc23)N=C1c1c[nH]c2cc(Br)ccc12` [HAMACANTHIN B], for which the figures for the MIC against Cryptococcus neoformans, against Bacillus subtilis and in the assay with Candida albicans were 6.2 µg/mL (≈ 12.8 µM), 1.6 µg/mL (≈ 3.29 µM) and 6.2 µg/mL (≈ 12.8 µM), respectively.
